Experimental data: patent US7217686B1, “DNA sequence encoding oncofetal ferritin protein” (Gardino Investment N.V., priority 1999, dated 2007)
Where “and” joins values, the source holds several entries; their conditions need not be identical. Identical values can stand only once.

Columns and labels:
[1] = tested on: zymosan induced arthritis (ZIA); experiment: Zymosan induced arthritis (ZIA) in mice; type: in vivo; conditions: for Knee swelling Mean +/− SD (n = 10): C48 30 μg/per mouse daily i.p. from day 1 up to 10
Procedure: Animals: Female ICR mice were obtained from our institution's breeding facilities and were fed a standard diet and tap water ad libidum. Induction of zymosan-induced arthritis: A homogeneous suspension of 25 mg zymosan A (Saccharomyces cerevisiae), dissolves in 1 ml endotoxin-free saline, was obtained by boiling twice followed by sonic emulsification. Arthritis was induced by intrarticular injection of 0.5 mgr/20 l zymosan into each right and left knees. Assessment of ZIA: Mice were evaluated at 14 days post zymosan injections: Swelling was quantitated by measuring the thickness of the knees with a caliper, at 14th day post ZIA and compared to the thickness prior to ZIA. Histologic processing and analysis of knee joints: Knee joints were dissected, fixed, decalcified, dehydrated, and embedded in paraffin. Standard frontal section of 7 μm were prepared and stained with eosin-hematoxilin. Disease severity was assessed by calculation of arthritic index as follows: • Semiquantitative assessment of pathologic findings was performed using a grading system, consisting of five grades. Grade 0: normal synovia; grade 1: 1–5 cellular infiltrates in the microscopic field; grade 2: 6–20 cellular infiltrates; grade 3: 21–50 infiltrates; grade 4: more than […]. • Lymphocytic nodules: grade 1: 1–3 nodules per sectio; grade 2: 4–10 nodules; grade 3: 11–20 nodules; grade 4: more than 20 nodules. • Histiocytes grading: grade 1: 1–10 cell; grade 2: 11–20 cells; grade 3: 21–30 cells; grade 4: more than 30 cells. • Synovial thickness: grade 0: presence of 1 layer of synovial cells; grade 2: 2–3 layers; grade 3: 4–6 layers; grade 4: more than 6 layers. The presence of pannus was considered evidence of severe synovitis. Treatment with C48 (OFF1): Three groups of 10 mice each, were treated by daily intraperitoneal injections of either PBS (control group) or C48 (30 μg/per mouse). Statistical analysis: The significance of comparisons between means was assessed by Student's t-test. Effect of C48 administration on ZIA: Two group of mice (n=10 each) were treated by daily i.p. injections from day 1 up to 10 (10 days), or from day 3 to 10 (7 days) (C48 delayed) following intraarticular zymosan injections. Groups of ZIA mice (n=10) which received daily injections of PBS served as control.

[2] = tested on: activated human lymphocytes in MLR; experiment: Cytokine secretion by activated human lymphocytes in mixed lymphocyte culture (ELISA); type: cell-based; conditions: 24 h culture supernatant
Procedure: In-vitro activation of human lymphocytes without and with C48/OFF1 treatment was carried out in a mixed lymphocyte culture (MLC). Human peripheral blood lymphocytes ([…]) (responder cells) were incubated with non-related Mitomycin C (40 μgr/ml) treated lymphocytes (2×10^6/ml) in RPMI-1640 medium containing 10% Fetal Calf serum and antibiotics. The cultures were incubated for 24 h in a humidified incubator at 37° C. with 5% CO2. Supernatants were collected and the concentration of the secreted cytokines were measured using an ELISA assay kit. The level of IL-2 R, and interferon (Th1 cytokines) and IL-6 and IL-10 (TH2 cytokines) were determined.

[3] = tested on: human bone marrow progenitor CFU-GM; experiment: CFU-GM colony assay with normal human bone marrow mononuclear cells; type: cell-based; conditions: Cond. Med. 5% vol/vol, p43 (PLF) 1 μg/ml, GM-CSF 15 ng/ml; for number of CFU-GM colonies: scored after 14 days
Procedure: Bone marrow samples from 11 healthy volunteer donors were processed by density gradient separation using […] (Sigma diagnostics, St. Louis, Mo., USA) to obtain a purified population of mononuclear cells. Colony assays were performed in a plating medium containing final concentrations of 0.92% methyl cellulose (M-281 powder, 4,000 centipoise, Fisher Scientific Co., Fair Lawn, N.J., USA), rehydrated in Iscove's modified Dulbecco's medium containing 36 mM sodium bicarbonate (Gibco, Grand Island, N.Y., USA), 30% fetal bovine serum (FBS) (HyClone, Logan, Utah, USA) 0.292 mg/ml glutamine, 100 U/ml penicillin and 0.01 mg/ml streptomycin (Biological Industries, Beit Haemek, Israel). Growth factors used were […] GM-CSF Leucomax (Sandoz Pharma) and 5% vol/vol human phytohemagglutinin-M (Difco Laboratories, Detroit, Mich., USA)-induced conditioned medium (Cond. Med.) p43 (PLF) was added at concentration of 1 μg/mL and in neutralization experiments, p43 (PLF) was preincubated with 10× excess of CM-H-9 MoAb at 37° C. for 30 min and the complex added to the assay as above. The colony assay medium contained 10^5 mononuclear cells/ml and each 1 ml was plated into triplicate wells (333 μl/well) of a 24 well tissue culture plate (Greiner, Germany). Water was added to spaces between cells to maximize humidity during incubation of the cultures. The cultures were incubated at 37° C. in 5% CO2 and 55% relative humidity. Plates were scored after 14 days for colonies containing more than 50 cells.

For “C48/OFF 1: deletion construct encoding the unique C-terminal 48 aa of OFF1, expressed in E. coli as GST fusion protein (FPSPISPSPSCWHHYTTNRPQPQHHLLRPRRRKRPHSIPTPILIFRSP; left off: a dimerising Fc or GST)”, the “Knee swelling Mean +/− SD (n = 10)” value ([1]; 14 days post zymosan) was 0.24 mm, the “Knee swelling Mean +/− SD (n = 10)” value ([1]; 14 days post zymosan, listed as C48) was 0.24 +/− 0.56 mm and the “Knee swelling Mean +/− SD (n = 10), C48 delayed” value ([1]; C48 30 μg/per mouse daily i.p. from day 3 to 10, 14 days post zymosan, listed as C48) was 0.33 mm and 0.33 +/− 0.57 mm. For the same substance, the “Arthritis Score Mean +/− SD (n = 10)” value ([1]; C48 daily i.p. from day 1 up to 10, mean grades of pathological findings) was 1 +/− 0.83, the “Arthritis Score Mean +/− SD (n = 10), C48 delayed” value ([1]; C48 daily i.p. from day 3 to 10, mean grades of pathological findings) was 0.9 +/− 0.83 and the severity of arthritis ([1]; C48 from day 1 to 10 or from day 3 to 10, compared with PBS) was “very mild”. For the same substance, the “IL-6 secreted in MLR” value [2] was 170,779 +/− 58,800 u/mL, the “IL-10 secreted in MLR” value [2] was 1125 +/− 332 u/mL and the “sIL-2R secreted in MLR” value [2] was 50 u/mL. For the same substance, the “γ Interferon secreted in MLR” value [2] was 46 u/mL.

With “GM-CSF: GM-CSF Leucomax (Sandoz Pharma), growth factor used for comparison [reference compound]” the “MEDIAN number of CFU-GM colonies” value ([3]; 11 donors) was 144, the “RANGE of number of CFU-GM colonies” value ([3]; 11 donors) was 50–884 and the “mean number of CFU-GM colonies (AVG.)” value ([3]; 11 donors) was 276+/−257 and 276.2. The “number of CFU-GM colonies” value ([3]; Bone Marrow No. 1) was 144, the “number of CFU-GM colonies” value ([3]; Bone Marrow No. 2) was 396 and the “number of CFU-GM colonies” value ([3]; Bone Marrow No. 3) was 114. For the same substance, the “number of CFU-GM colonies” value ([3]; Bone Marrow No. 4) was 66, the “number of CFU-GM colonies” value ([3]; Bone Marrow No. 5) was 136 and the “number of CFU-GM colonies” value ([3]; Bone Marrow No. 6) was 250. For the same substance, the “number of CFU-GM colonies” value ([3]; Bone Marrow No. 7) was 50, the “number of CFU-GM colonies” value ([3]; Bone Marrow No. 8) was 74 and the “number of CFU-GM colonies” value ([3]; Bone Marrow No. 9) was 520. For the same substance, the “number of CFU-GM colonies” value ([3]; Bone Marrow No. 10) was 884 and the “number of CFU-GM colonies” value ([3]; Bone Marrow No. 11) was 405.
